{"source": "paper PMC10287566", "about": "“Signaling-specific inhibition of the CB1 receptor for cannabis use disorder: phase 1 and phase 2a randomized trials” (Nature Medicine, 2023)", "key": {"rats": {"tested_on": "rats", "assay": "THC-induced dopamine release in nucleus accumbens (microdialysis)", "assay_type": "in vivo", "conditions": "15 µg kg^−1 oral"}, "[1]": {"biological_target": "GR (glucocorticoid receptor) (Homo sapiens, UniProt P04150)", "sequence (P04150 whole entry)": "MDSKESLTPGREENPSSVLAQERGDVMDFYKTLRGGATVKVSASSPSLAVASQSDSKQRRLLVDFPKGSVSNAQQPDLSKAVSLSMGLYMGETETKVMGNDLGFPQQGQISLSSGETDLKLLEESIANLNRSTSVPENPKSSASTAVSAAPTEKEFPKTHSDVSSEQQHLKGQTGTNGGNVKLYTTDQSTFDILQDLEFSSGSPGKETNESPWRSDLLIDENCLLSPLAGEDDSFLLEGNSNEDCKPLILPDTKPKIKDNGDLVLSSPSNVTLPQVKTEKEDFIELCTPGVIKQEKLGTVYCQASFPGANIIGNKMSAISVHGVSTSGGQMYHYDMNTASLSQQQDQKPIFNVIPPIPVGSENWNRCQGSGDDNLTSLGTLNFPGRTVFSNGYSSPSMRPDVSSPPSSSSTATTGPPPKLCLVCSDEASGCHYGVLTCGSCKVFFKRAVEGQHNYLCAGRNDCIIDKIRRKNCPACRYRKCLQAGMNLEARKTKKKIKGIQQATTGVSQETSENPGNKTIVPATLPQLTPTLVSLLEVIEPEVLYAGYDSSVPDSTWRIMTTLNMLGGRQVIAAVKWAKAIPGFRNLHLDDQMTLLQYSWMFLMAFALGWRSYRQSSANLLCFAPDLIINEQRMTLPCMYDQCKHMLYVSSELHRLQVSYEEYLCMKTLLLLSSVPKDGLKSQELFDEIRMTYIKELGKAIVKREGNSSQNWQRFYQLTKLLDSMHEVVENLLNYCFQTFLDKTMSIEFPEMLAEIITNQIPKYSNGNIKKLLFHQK", "assay": "Eurofins binding screen", "conditions": "read-out: Percent inhibition of control specific binding"}, "CD-1 Swiss male mice": {"tested_on": "CD-1 Swiss male mice", "assay": "i.v. self-administration of WIN55,212-2 in mice", "assay_type": "in vivo", "experimental": "Before the start of the self-administration sessions, mice were implanted under anesthesia with catheters into the right jugular vein. […] Mice were trained under a fixed ratio 1 (FR1) schedule of reinforcement.\nTwo-hour daily self-administration sessions were conducted 6 d per week for 18 d. Mice received corn oil vehicle (2 ml kg^–1) orally on days 9 and 10 to be habituated to the oral gavage procedure."}, "[2]": {"assay": "Phase 2a study, plasma pharmacokinetics", "assay_type": "in vivo, human", "conditions": "for Cmax: human, plasma, in the range predicted from animal data", "experimental": "THC and its metabolites (11-OH-THC and 11-COOH-THC) were assessed at the same timepoints. […] THC and its metabolites analyses were performed using PD dataset (n = 13 for both doses).\nPK parameters for AEF0117 were subject to descriptive statistics separately for each treatment group."}, "squirrel monkeys": {"tested_on": "squirrel monkeys", "assay": "i.v. self-administration of THC in squirrel monkeys", "assay_type": "in vivo, Saimiri sciureus", "text": "Two experimental models were used: (1) THC i.v. self-administration and (2) THC-induced reinstatement of THC seeking. These two approaches were used to model the maintenance of daily cannabis use and cannabis seeking after a period of abstinence.\nFor the self-administration experiments, four male squirrel monkeys (800–1,100 g; the estimated age was 17 years for three monkeys and 14 years for the fourth one) were used because this species reliably self-administers i.v. THC. Monkeys were trained to lever press for an i.v. injection of THC (4 µg kg^–1 per injection) under a 10-response fixed ratio schedule of drug injection (FR10; each 10th response on the lever produced an injection of THC, followed by a 60-s timeout). Number of lever presses and number of injections per session were recorded."}, "[3]": {"assay": "Exposure at the highest dose tested in animals without toxicity", "assay_type": "in vivo", "conditions": "human, plasma; exposure limit for humans", "experimental": "The planned dose-escalation schema for the SAD study was based on preclinical pharmacodynamics (PD), safety and toxicology data translated to humans using body surface ratios to ensure a large safety margin. For the MAD study, safety and PK data from the SAD study were used to determine doses. In both studies, all safety data for a given cohort/dose level were evaluated by a Data Safety Monitoring Board that was guided by predefined stopping criteria. The stopping criteria were based on the seriousness and severity combined with frequency of AEs that would lead to either not proceeding to the next dose level or stopping the trial. Dose escalation was also to be halted if the peak plasma levels exceeded that corresponding to the NOAEL in the most sensitive animal species (that is, the rat) in preclinical toxicology studies."}, "[4]": {"assay": "SAD study, plasma pharmacokinetics", "assay_type": "in vivo", "conditions": "human, oral; for Cmax: read-out: Cmax, mean (±SD); for half-life: SAD, evaluated 0-144 h, underestimated, read-out: t½, min-max", "experimental": "For both SAD and MAD studies, the PK parameters were calculated using standard non-compartmental methods for those with sufficient plasma concentration data."}, "mice [5]": {"tested_on": "mice", "assay": "THC-induced decrease in social interaction", "assay_type": "in vivo"}, "mice [6]": {"tested_on": "mice", "assay": "Anxiety-related behavior, elevated plus maze, repeated treatment", "assay_type": "in vivo", "conditions": "mice, elevated plus maze, highest dose tested 15 mg/kg", "text": "Anxiety-like behaviors were studied in the elevated plus maze (EPM), a rodent model used to evaluate the putative anxiogenic or anxiolytic effects of pharmacological compounds. Depression-related behaviors were studied using the sucrose preference test as a model of anhedonia, one of the cardinal symptoms of depression.\nThe EPM apparatus comprises four elevated arms arranged in a cross-like shape, with the two opposite arms enclosed by walls and the other two arms open. For all experiments, mice were placed in the center of the EPM and were free to explore the maze for 5 min after receiving the treatment. The time spent and the number of entries into the open and closed arms were measured by an automatic video tracking system (EthoVision XT version 12, Noldus Information Technology). A decrease in the percentage of visits and/or the time spent in open arms is considered an index of increased anxiety.\nThe EPM assessment was done on day 26, and the sucrose preference test was done on day 28."}, "endogenous mouse CB1": {"biological_target": "T1, endogenous mouse CB1 (Mus musculus, UniProt P47746)", "T1 construct": "a striatum-derived cell line that endogenously express murine CB1; host or cells: STHdhQ7/Q7", "T1 sequence (P47746 whole entry)": "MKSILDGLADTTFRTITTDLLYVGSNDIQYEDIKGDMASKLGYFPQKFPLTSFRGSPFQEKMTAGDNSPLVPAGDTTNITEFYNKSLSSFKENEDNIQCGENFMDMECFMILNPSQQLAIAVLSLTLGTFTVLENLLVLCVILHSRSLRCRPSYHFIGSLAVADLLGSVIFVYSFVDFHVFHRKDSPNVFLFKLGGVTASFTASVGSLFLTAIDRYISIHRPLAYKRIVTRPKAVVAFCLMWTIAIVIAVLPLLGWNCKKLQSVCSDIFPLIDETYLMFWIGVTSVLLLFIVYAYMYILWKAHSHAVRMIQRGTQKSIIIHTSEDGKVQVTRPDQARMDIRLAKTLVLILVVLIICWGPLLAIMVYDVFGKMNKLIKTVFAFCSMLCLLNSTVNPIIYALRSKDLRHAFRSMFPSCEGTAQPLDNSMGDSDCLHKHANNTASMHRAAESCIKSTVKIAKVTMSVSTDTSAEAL", "assay": "THC-induced p-ERK1/2 in STHdhQ7/Q7 cells", "assay_type": "cell-based", "conditions": "STHdhQ7/Q7, THC 10 µM; read-out: IC50, inhibition of THC-induced p-ERK1/2"}, "CYP and phase II enzymes": {"tested_on": "CYP and phase II enzymes", "assay": "Drug metabolic pathways (CYP and phase II enzymes), metabolites", "assay_type": "in vitro ADME"}, "mice [7]": {"tested_on": "mice", "assay": "Precipitated withdrawal in THC-dependent mice", "assay_type": "in vivo", "conditions": "highest dose tested […]", "experimental": "From day 1 to days 4–5, mice were injected i.p. with vehicle or THC (20 mg kg^−1) twice per day. On the last day of treatment, mice in the THC group received rimonabant or AEF0117. All other animals received the respective vehicle. […] For the measure of precipitated withdrawal, mice were placed in a novel home cage, and a video camera was positioned in front of each cage to record behavior. Scoring was performed for 1 min every 5-min period. Two withdrawal signs were analyzed—paw tremors and head shaking—because they are the most common signs of THC withdrawal observed in mice[14]."}, "[8]": {"conditions": "Self-administration of WIN 55,212-2, mice"}, "[9]": {"conditions": "Impairment of social interaction"}}, "note": "Read-outs that look alike come from different tables or passages of the source.", "data": [{"molecule": "COc1ccc(CO[C@H]2CC[C@@]3(C)C(=CC[C@H]4[C@@H]5CC[C@H](C(C)=O)[C@@]5(C)CC[C@@H]43)C2)cc1", "note": "[AEF0117, 3β-(4-methoxybenzyloxy)pregn-5-en-20-one]", "values": [{"measurement": "THC-induced increase in Nac extracellular dopamine", "setting": "rats", "result": "inhibited"}, {"measurement": "inhibition at 10 µM", "setting": "[1]", "result": 22, "unit": "%"}, {"measurement": "% Inhibition", "setting": "CD-1 Swiss male mice; [8]", "result": 80, "unit": "%"}, {"measurement": "ID50", "setting": "CD-1 Swiss male mice; [8]", "result": 0.005, "unit": "mg/kg"}, {"measurement": "ID100", "setting": "CD-1 Swiss male mice; [8]", "result": 0.015, "unit": "mg/kg"}, {"measurement": "i.v. self-administration of WIN55,212-2", "setting": "CD-1 Swiss male mice; mice, 15 µg kg^−1 oral", "result": "significantly reduced"}, {"measurement": "plasma concentration below LLOQ after washout", "setting": "[2]; 0.06 mg first, >=14 d later, 3 participants", "result": "0.0002 to 0.0093", "unit": "ng/mL"}, {"measurement": "mean concentration 24 h after 5th dose higher than 24 h after 1st dose", "setting": "[2]; Phase 2a, 0.06 and 1 mg", "result": "30-50%"}, {"measurement": "Cmax", "setting": "[2]; 0.06 mg", "result": "≥ 0.15", "unit": "ng/mL"}, {"measurement": "Cmax", "setting": "[2]; 1 mg", "result": "≥ 1.5", "unit": "ng/mL"}, {"measurement": "i.v. self-administration of THC", "setting": "squirrel monkeys; 15 µg kg^−1 oral", "result": "significantly reduced"}, {"measurement": "% Inhibition", "setting": "squirrel monkeys; Self-administration of THC", "result": 80, "unit": "%"}, {"measurement": "ID50", "setting": "squirrel monkeys; Self-administration of THC", "result": 0.005, "unit": "mg/kg"}, {"measurement": "ID100", "setting": "squirrel monkeys; Self-administration of THC", "result": 0.015, "unit": "mg/kg"}, {"measurement": "AUC", "setting": "[3]", "result": 41600, "unit": "ng·h/mL"}, {"measurement": "Cmax", "setting": "[3]", "result": 4360, "unit": "ng/mL"}, {"measurement": "Cmax", "setting": "[4]; both sexes, SAD Day 1, 2 mg", "result": "14.7 ± 4.3", "unit": "ng/mL"}, {"measurement": "Tmax", "setting": "[4]; both sexes, SAD Day 1, 2 mg, read-out: tmax, median (range)", "result": 3, "unit": "h"}, {"measurement": "half-life", "setting": "[4]; both sexes, 0.6 mg", "result": "75.9 to 229", "unit": "h"}, {"measurement": "Tmax", "setting": "[4]; healthy volunteers, read-out: Tmax", "result": "~3", "unit": "h"}, {"measurement": "Cmax", "setting": "[4]; SAD Day 1, 0.2 mg", "result": "1.3 ± 0.3", "unit": "ng/mL"}, {"measurement": "Tmax", "setting": "[4]; SAD Day 1, 0.2 mg, read-out: tmax, median (range)", "result": 3, "unit": "h"}, {"measurement": "Cmax", "setting": "[4]; SAD Day 1, 0.6 mg", "result": "3.5 ± 1", "unit": "ng/mL"}, {"measurement": "Tmax", "setting": "[4]; SAD Day 1, 0.6 mg, read-out: tmax, median (range)", "result": 2.5, "unit": "h"}, {"measurement": "Cmax", "setting": "[4]; SAD Day 1, 6 mg", "result": "38.6 ± 8.1", "unit": "ng/mL"}, {"measurement": "Tmax", "setting": "[4]; SAD Day 1, 6 mg, read-out: tmax, median (range)", "result": 2, "unit": "h"}, {"measurement": "half-life", "setting": "[4]; 2 mg", "result": "84.4 to 180", "unit": "h"}, {"measurement": "half-life", "setting": "[4]; 6 mg", "result": "69.3 to 162", "unit": "h"}, {"measurement": "Tmax", "setting": "[4]; healthy volunteers, SAD and MAD, read-out: median tmax", "result": "2 to 3", "unit": "h"}, {"measurement": "THC's effects on social interaction", "setting": "mice [5]", "result": "inhibited"}, {"measurement": "% Inhibition", "setting": "mice [5]; [9]", "result": 100, "unit": "%"}, {"measurement": "ID50", "setting": "mice [5]; [9]", "result": 0.005, "unit": "mg/kg"}, {"measurement": "ID100", "setting": "mice [5]; [9]", "result": 0.015, "unit": "mg/kg"}, {"measurement": "Overall effect: increase in anxiety-related behaviors", "setting": "mice [6]", "result": "No"}, {"measurement": "IC50", "setting": "endogenous mouse CB1", "result": 300, "unit": "nM"}, {"measurement": "interaction with major drug metabolic pathways (CYP and phase II enzymes)", "setting": "CYP and phase II enzymes", "result": "does not modify the activity of, nor is it notably metabolized by"}, {"measurement": "Overall effect: precipitated withdrawal in THC-dependent mice", "setting": "mice [7]", "result": "No"}]}]}
